{
  "source": "patent US4518611A",
  "about": "“2-Furylbutyrolactone modulation of the immune system in mammals” (priority 1983, dated 1985)",
  "key": {"C57BL/6 mice": {"test_system": "C57BL/6 mice", "settings": "for Number Dead on Day 3: ten mice per dose", "method": "Single dose LD50 in C57BL/6 mice for Cpd. 1 is determined following the method of Spearman and Karber described in Basic Exercises in Immunochemistry, 1979. Briefly, 0.5 ml of each dose is given to each of ten mice. The survivors are counted after 3 days and the LD50 is calculated using the following formula: [formula] where D=fold diferences between doses, R=total number dead, and N=total number of animals tested."}, "spleen lymphocytes": {"test_system": "spleen lymphocytes", "settings": "for stimulation of DNA synthesis (in words): BSA", "source_text": "The effect of the compounds of this invention on the immune response to specific antigens involves immunization of mice with specific antigens such as bovine serum albumin (BSA) or keyhole limpet hemocyanin (KLH). Following immunization, it is possible to assess the cell-mediated or humoral (antibody) immune response to these antigens by various methods:\n(1) Lymphocyte stimulation assays can be performed using varying concentrations of the specific antigens as mitogens in the lymphocyte stimulation microculture system described above. The only difference is that the incubation period is extended to five days instead of three as for the polyclonal mitogens.\nMice of the C57BL/6 strain are given i.p. injections of either 50, 100, 200 or 400 mg/kg of Cpd. 1 or buffer for twelve days (days 1-12). An antigen, bovine serum albumin (BSA), is administered intraperitoneally with Freund's Complete Adjuvant (FCA) on days 1, 7 and 14. Blood samples are taken for assay of the antibody response on days 0, 5, 13, and 19."}, "L5178Y tumor cells": {"test_system": "L5178Y tumor cells", "settings": "for No. Survivors: 100 mg/kg", "method": "Ten days later the resultant tumor nodule, about 1 cm in size, is surgically excised. If the excision was successful, no subcutaneous tumors develop at the site of implantation. […] These mice are considered to be in the tumor dormant state.\nThe effect of Cpd. 1 on the establishment of the L5178Y tumor dormant state is studied by treating forty DBA/2 mice with Cpd. 1 after the mice have undergone the TDS inducing procedure. […] 1 at 100 mg/kg and the remaining twenty mice receive buffer only. A partial peritoneal lavage is performed twenty-five days after the last dose of Cpd. 1 and the peritoneal exudate fluid is plated out for determination of tumor cell numbers (tumor cell quantitative assay). Survival time is recorded out to 90 days after challenge with the viable L5178Y tumor cells. The percent mortality is calculated for each group.\nThe effect of Cpd. 1 on the establishment of the L5178Y tumor dormant state was studied by treating forty DBA/2 mice with Cpd. 1 after the mice had undergone the TDS inducing procedure. Two days after the mice were challenged with i.p. administration of 50,000 viable L5178Y tumor cells, twenty of these mice received seven consecutive days of i.p. treatment with Cpd. 1 at 100 mg/kg and the remaining twenty mice received buffer only. A partial peritoneal lavage was performed twenty-five days after the last dose of Cpd. 1 and the peritoneal exudate fluid was plated out for determination of tumor cell numbers (tumor cell quantitative assay). Survival time was recorded out to 114 days after challenge with the viable L5178Y tumor cells. The percent mortality was calculated for each group."}, "human lymphocytes": {"test_system": "human lymphocytes", "assay": "In vitro lymphocyte stimulation assay, human lymphocytes", "assay_type": "cell-based", "method": "The purpose of this assay is to challenge lymphocytes in microcultures with one or more polyclonal mitogens at concentrations that will induce mitogenesis within 72 hours of stimulation.\nIn the mouse model, spleens are removed from different strains of mice and the spleen cells are teased free and suspended in RPMI-1640 tissue culture medium at a concentration of usually […]. These cells are dispensed at a concentration of 5.0×10^5 cells per microculture well in a 96 well flat bottom 96 well tissue culture plate. All testing of the compounds of this invention or mitogens are done in replicates of 10. The cells are then treated with PHA, Con-A, specific antigens, or buffer only. If in vitro testing is done, varying concentrations of the compounds of this invention or buffer only are added to the cells as well. After treatment with the mitogens and/or compounds of this invention, the cells are incubated for 72 hours. The response of these cells to mitogens and/or the compounds of this invention is assessed using ^14 C-thymidine labeling on the fourth day at a concentration of 0.01 μCi/well. The labeled cells are harvested using a lymphocyte harvestor and placed onto fibrous paper discs. A scintillation cocktail is added to vials containing the discs and the results are obtained using a LKB-liquid scintillation counter (Model 1216/Rackbeta II). The data is expressed as a ratio of the cpm of the mitogen stimulated group to the control (nonmitogen) treated group=lymphocyte stimulation index (LSI).\nThe lymphocyte stimulation assay may be performed directly on spleen cells obtained from various strains of mice not treated with the compounds of this invention or on lymphocytes obtained from human […]. […] Alternatively, the mice may be treated in vivo with the compounds of this invention by intraperitoneal multi-dose schedules, followed by sacrifice and harvesting spleen lymphocytes. These cells are then tested for their response to polyclonal mitogens or specific antigens used to immunize the mice. In this system however, no additional compound is added to the in vitro lymphocyte stimulation assay system.\nLymphocytes isolated from 5 human volunteers are treated in vitro with PHA and Con-A and either 0.1, 1, 10, 50, or 100 μg/well of Cpd. 1, 0.1, 1, 10, 50, or 100 μg/well of AA, or buffer."}, "[1]": {"settings": "No. tumor cells >100,000, 100 mg/kg i.p., 7 days"}},
  "note": "Several values for one entry are separate records, joined by “and”; a condition that tells them apart may be missing. Identical values can stand only once. Entries after “also recorded” stand apart in the source; their conditions may differ. Like-named read-outs stand apart in the source and are kept apart here.",
  "data": [
    {"smiles": "Cc1ccc(C2(O)C(=O)OC3C(O)COC32O)o1.Cc1ccc(C2(O)C(=O)OC3C(O)COC32O)o1.O=C1CCC(=O)O1", "note": "(stereo not drawn) [Cpd. 1, 2-furylbutyrolactone:succinic anhydride]", "values": [
      {"measurement": "Number Dead on Day 3", "setting": "C57BL/6 mice; 1,000 mg/kg single i.p.", "result": 0},
      {"measurement": "Number Dead on Day 3", "setting": "C57BL/6 mice; 2,000 mg/kg single i.p.", "result": 0},
      {"measurement": "Number Dead on Day 3", "setting": "C57BL/6 mice; 4,000 mg/kg single i.p.", "result": 7},
      {"measurement": "Number Dead on Day 3", "setting": "C57BL/6 mice; 8,000 mg/kg single i.p.", "result": 10},
      {"measurement": "Number Dead on Day 3", "setting": "C57BL/6 mice; 16,000 mg/kg single i.p.", "result": 10},
      {"measurement": "LD50", "setting": "C57BL/6 mice; purified Cpd. 1, single i.p. injection, 4320 min", "result": "> 3000", "unit": "mg/kg"},
      {"measurement": "Lymphocyte Stimulation Index", "setting": "spleen lymphocytes; 50 mg/kg, BSA 0 μg/well, Day 19", "result": ".26"},
      {"measurement": "stimulation of DNA synthesis (in words)", "setting": "spleen lymphocytes; 50 mg/kg, day 19", "result": "This effect has waned by day 19"},
      {"measurement": "Lymphocyte Stimulation Index", "setting": "spleen lymphocytes; 100 mg/kg, BSA 0 μg/well, Day 19", "result": 4.1},
      {"measurement": "Lymphocyte Stimulation Index", "setting": "spleen lymphocytes; 100 mg/kg, BSA 0.01 μg/well, Day 13", "result": 9.8},
      {"measurement": "Lymphocyte Stimulation Index", "setting": "spleen lymphocytes; 100 mg/kg, BSA 1.0 μg/well, Day 19", "result": ".26"},
      {"measurement": "Lymphocyte Stimulation Index", "setting": "spleen lymphocytes; 200 mg/kg, BSA 0 μg/well, Day 19", "result": 0.42},
      {"measurement": "Lymphocyte Stimulation Index", "setting": "spleen lymphocytes; 200 mg/kg, BSA 1 μg/well, Day 13", "result": 14.0},
      {"measurement": "Lymphocyte Stimulation Index", "setting": "spleen lymphocytes; 400 mg/kg, BSA 0 μg/well, Day 19", "result": 5.0},
      {"measurement": "stimulation of DNA synthesis (in words)", "setting": "spleen lymphocytes; day 13", "result": "Only the 50 mg/kg dose shows significant stimulation of DNA synthesis on day 13 compared to controls"},
      {"measurement": "numbers of tumor cells recovered (in words)", "setting": "L5178Y tumor cells; 100 mg/kg i.p., 7 days", "result": "significant reduction in the numbers of tumor cells recovered"},
      {"measurement": "survival (in words)", "setting": "L5178Y tumor cells; 100 mg/kg i.p., 7 days", "result": "significantly greater survival"},
      {"measurement": "No. Survivors", "setting": "L5178Y tumor cells; 90 days post-challenge", "result": 10},
      {"measurement": "No. Survivors", "setting": "L5178Y tumor cells; 114 days post-challenge", "result": 19},
      {"measurement": "Frequency (mice), treated group", "setting": "L5178Y tumor cells; No. tumor cells 1,000 to 100,000, 100 mg/kg i.p., 7 days", "result": "7 and 4"},
      {"measurement": "% of Total, treated group", "setting": "L5178Y tumor cells; [1]", "result": "6% and 4.3%"},
      {"measurement": "Frequency (mice), treated group", "setting": "L5178Y tumor cells; [1]", "result": 1},
      {"measurement": "Lymphocyte Stimulation Index, Con-A", "setting": "human lymphocytes; 0.1 μg/well", "result": 38.06},
      {"measurement": "Lymphocyte Stimulation Index, PHA", "setting": "human lymphocytes; 0.1 μg/well", "result": 56.67},
      {"measurement": "Lymphocyte Stimulation Index, Con-A", "setting": "human lymphocytes; 1.0 μg/well", "result": 32.63},
      {"measurement": "Lymphocyte Stimulation Index, PHA", "setting": "human lymphocytes; 1.0 μg/well", "result": 48.60},
      {"measurement": "Lymphocyte Stimulation Index, Con-A", "setting": "human lymphocytes; 10 μg/well", "result": 23.82},
      {"measurement": "Lymphocyte Stimulation Index, PHA", "setting": "human lymphocytes; 10 μg/well", "result": 34.37},
      {"measurement": "Lymphocyte Stimulation Index, Con-A", "setting": "human lymphocytes; 50 μg/well", "result": 1.33},
      {"measurement": "Lymphocyte Stimulation Index, PHA", "setting": "human lymphocytes; 50 μg/well", "result": 0.40},
      {"measurement": "Lymphocyte Stimulation Index, Con-A", "setting": "human lymphocytes; 100 μg/well", "result": 0.44},
      {"measurement": "Lymphocyte Stimulation Index, PHA", "setting": "human lymphocytes; 100 μg/well", "result": 0.544},
      {"measurement": "effect on lymphocyte response (in words)", "setting": "human lymphocytes; in vitro, PHA and Con-A", "result": "a high dose anti-proliferative effect, at doses of 100 and 50 μg/ml; also recorded: markedly increased lymphocyte response at very low doses of 1 and 0.1 μg/ml"}
    ]}
  ]
}
